Assay results from the NIST ThermoML archive (doi:10.1021/je100927m).

What was measured:
[1] = Liquid; for mass density: 101.33 kPa; for speed of sound: Pulse-echo method
[2] = refractive index (Na D-line) (dimensionless); details: 298.15 K; 101.33 kPa; Liquid; Standard Abbe refractometry

CCCCC(CC)CO (stereo unspecified) [2-ethyl-1-hexanol]
[1]
Details	mass density [kg/m3]
283.15 K	839.89
288.15 K	836.26
293.15 K	832.62
298.14 K	828.96
303.15 K	825.28
308.15 K	821.58
313.14 K	817.86
318.15 K	814.11
323.15 K	810.33
328.15 K	806.52
333.15 K	802.68
338.14 K	798.8
343.15 K	794.87
348.15 K	790.91
353.15 K	786.89
358.15 K	782.83
363.15 K	778.72

speed of sound [m/s], [1]
Details	101 kPa	15200 kPa	30390 kPa	45590 kPa	60790 kPa	75990 kPa	91180 kPa	101320 kPa
292.89 K	–	1418.5	1487.2	1549.6	1607.2	1660.4	1710.5	1742
293.15 K	1336.3	–	–	–	–	–	–	–
298.15 K	1318.4	–	–	–	–	–	–	–
298.19 K	–	1400.2	1470.1	1533.2	1591.5	1645.4	1696	1728
303.15 K	1300.6	1383.5	1454.4	1518.4	1577.5	1631.8	1682.7	1715.1
308.13 K	–	1367.2	1438.9	1503.8	1563.5	1618.6	1669.8	1702.5
308.15 K	1282.8	–	–	–	–	–	–	–
313.1 K	–	1351.2	1424	1489.6	1549.7	1605.5	1657.2	1689.9
313.15 K	1264.9	–	–	–	–	–	–	–
318.15 K	1247.1	–	–	–	–	–	–	–
318.26 K	–	1334.8	1408.8	1475.2	1535.9	1592.2	1644.5	1677.4

Details	refractive index
[2]	1.4292
